From patent US10201558B2, “Compositions of selenoorganic compounds and methods of use thereof” (Alltech, Inc., priority 2014, dated 2019)
“Also recorded” adds a separate entry of the source.

Key:
IGF1R = experiment: QRT-PCR of IGF1R mRNA in IMR-32 cells; format: cell-based, human; conditions: 75 ppb and 150 ppb, 24 hours
Protocol: (§1) Human IMR-32 cells were seeded on gelatinized 6-well (6.5×10^5 cells/well) or 24-well (1.3×10^5 cells/well) plates. Cells were treated with control (0 ppb) or various compounds for 6 hours or 24 hours. Total RNA from these cells was isolated using Trizol (Invitrogen) according to the manufacturer's protocol, and then incubated with DNase I to remove any potential contaminated genomic DNA. Then RNA samples were subjected to real-time PCR analysis using the Applied-Bioscience's RT kit and predesigned Taqman probes (Invitrogen), as described previously (Lan et al EMBO J 2003). The mRNA levels of UCP1, UCP2, UCP3, SLC25A27 (UCP4), SLC25A14 (UCP5), PSEN1, Nicastrin, GSK3B, MAPK11-14, PPARG, APOE, RCAN1, RCAN1.1, G6PC, INSR, IGF1R and FOXO4 were measured. Three to six samples were analyzed in each treatment group. Data were normalized by Actin B (ACTB) or Glyceraldehyde Phosphate Dehydrogenase (GAPDH) mRNA levels in each sample and are presented as mean±SEM of 3-6 samples.
(§2) To examine whether or not Compound C can regulate INSR/IGF1R signaling in IMR-32 cells, QRT-PCR analysis was performed to measure INSR and IGF1R mRNA levels. […] Mean±SEM, n=4. The * refers to a p value <0.05 when compared to the control group (0 ppb).

INSR = experiment: QRT-PCR of INSR mRNA in IMR-32 cells; format: cell-based, human; conditions: 75 ppb and 150 ppb, 24 hours
Protocol: as §1, §2

PPARG = experiment: QRT-PCR of PPARG mRNA in IMR-32 cells (normal, control KD, FOXO4 KD); format: cell-based, human
Protocol: IMR-32 cells were cultured on 12-well plates for 24 hours and then incubated with FOXO4 siRNA lentiviruses (SC-29650V, Santa Cruz) or control siRNA lentiviruses (sc-108080, Santa Cruz) in the presence of Polybrene (5 μg/ml, Santa Cruz) for 24 hours according to the manufacturer's protocol. These lentiviral siRNA-transfected cells were amplified in normal media for 3 days and then incubated with puromycin for 9-14 days to obtain the stable Control KD (stably transfected with the control siRNAs) and FOXO4KD (stably transfected with Foxo4 siRNAs) cells. These control and Foxo4 KD cells were subjected to cell survival, mitochondrial potential and RNA analysis.
as §1
To explore this possibility, IMR-32 cells were treated with 150 ppb Compound C, Compound D or Compound E (150 ppb) for 6 hours and 24 hours, and then subjected to Western blot and QRT-PCR analyses. […] Therefore, Compound C and Compound D are downregulators of PPARG in IMR-32 cells at both mRNA and protein levels. […]

[1] = tested on: phosphorylated Foxo4 (threonine 28); experiment: Western blot of phosphorylated Foxo4 in APP/PS1 mouse brains; format: in vivo; conditions: APP/PS1 mouse brain, Compound C diet vs control diet
Protocol: Male APPΔNLh/ΔNLh×PS1P246 L/246 L knock-in model mice of Alzheimer's disease (abbreviated APP/PS1) were genotyped using standard primers for human APP (Amyloid Precursor Protein) and human PS1 (PSEN1).
At 12 months of age, the mice were euthanized and the brains quickly removed, the cerebellum isolated and the hemispheres snap-frozen in liquid nitrogen and then stored at −80° C. for further immunohistochemistry (IHC), protein and RNA analysis. All procedures conducted on these animal studies were pre-approved by the University of Kentucky IACUC committee.
Frozen hemispheres of control- and Compound C-treated APP/PS1 mice were weighed and homogenized in PBS buffer, and then subsequently extracted with RIPA buffer (Sigma) containing complete proteinase and phosphatase inhibitors (Fisher Scientific). Protein levels in the samples were determined by micro-BCA protein analysis according to the manufacturer's protocol. […] Positive signals on the membrane blots were detected using Amersham's enhanced chemiluminescence Western Blotting Prime Detection reagents (GE healthcare Lifescience, Pittsburgh, Pa.). Images of these luminescence signals on the membrane blots were captured using the LI-COR Odyssey Fc Image system (Lincoln, Nebr.). […]

IMR-32 cells = experiment: Mitochondrial potential assay (Mitotracker Orange); format: cell-based, human; conditions: 75 ppb and 150 ppb
Protocol: The mitochondrial potential per cell in control lentiviral KD IMR-32 or IMR-32 FOXO4 knockdown (KD) cells was determined using the Bio-TeK Synergy HT Multi-Mode fluorescence microplate reader with the following modifications. To improve the attachment of IMR-32 cells to culture dishes, cell culture plates were precoated with 0.1% gelatin (Sigma, St. Louis, Mo.).
To reduce cell dislodgment, Mitotracker Orange and Hoechst 33342 fluorescent dyes (diluted in culture media) were directly added to each well after control or compound treatments were added. After dye incubation, cell culture media was carefully replaced with 1×PBS buffer for the quantitation analysis of fluorescence on the microplate reader. Eight samples per each treatment were examined for the above analysis, and the experiments were repeated at least five times. Data are presented as mean±sem of eight samples.
Mitochondrial (MT) dysfunction and dysregulated glucose metabolism are associated with the onset of Alzheimer's Disease (AD). Likewise, as AD progresses, there is strong evidence that Aβ and Tau protein species precipitate further mitochondrial decline. […]

Structure (SMILES): C[Se]C[C@H]1O[C@@H](n2cnc3c(N)ncnc32)C(O)C1O (stereo in doubt) [Compound C, 5′-deoxy-5′-methylselenoadenosine]
- IGF1R mRNA expression levels (IGF1R): downregulated
- INSR mRNA expression levels (INSR): downregulated
- PPARG mRNA expression (PPARG; FOXO4KD cells, 75 ppb and 150 ppb, 24 hours): not significantly altered
- PPARG mRNA levels (PPARG; IMR-32 cells, 150 ppb, 6 hours): significantly lower
- PPARG mRNA levels (PPARG; control normal cells, 75 ppb and 150 ppb, 24 hours): attenuated
- phosphorylated Foxo4 at threonine 28 (pFoxo4) protein [1]: inhibition; also recorded: less abundant; also recorded: significantly decreased
- MT potential (red fluorescence intensities, micrographs) (IMR-32 cells; 6 hours): remarkably enhanced
- MT potential, quantitative analysis normalized by stained cell nuclei (IMR-32 cells; 6 hours and 24 hours): significant increase; also recorded: enhanced
